Data on five molecules can be found in ChEMBL document CHEMBL1146449, “Trypanocidal flavonoids from Trixis vauthieri” (1997).

What all share (assay type): functional
What all share (set-up): scale not given: the % may be the effect or the level left

Test [1] relates to Trypanosoma cruzi. The experiment in a line: Trypanocidal activity against Trypanosoma cruzi Y strain trypomastigotes infected in Swiss albino mouse blood assessed as reduction of parasitemia at 31 ug/mL after 24 hrs relative to control.
Test [2] has as its system Trypanosoma cruzi. As to the kind of experiment: Trypanocidal activity against Trypanosoma cruzi Y strain trypomastigotes infected in Swiss albino mouse blood assessed as reduction of parasitemia at 500 ug/mL after 24 hrs relative to control.
For test [3], the system named is Trypanosoma cruzi. As to the kind of experiment: Trypanocidal activity against Trypanosoma cruzi Y strain trypomastigotes infected in Swiss albino mouse blood assessed as reduction of parasitemia at 1000 ug/mL after 24 hrs relative to control.

Turning to `CN(C)c1ccc(C(=C2C=CC(=[N+](C)C)C=C2)c2ccc(N(C)C)cc2)cc1.[Cl-]` [GENTIAN VIOLET], in the test on Trypanosoma cruzi [1], the Activity amounted to 50%. Take `COc1cc2oc(-c3ccc(O)cc3)c(OC)c(=O)c2c(O)c1OC` [PENDULETIN]: the Activity in the test with Trypanosoma cruzi [2] turned out to be 86%. `COc1cc(O)c2c(c1)OC(c1ccc(O)cc1)C(O)C2=O` (stereo not given): in the test with Trypanosoma cruzi [3], the Activity is 0%. With `COc1cc(O)c2c(c1)O[C@H](c1ccc(O)cc1)CC2=O` [SAKURANETIN], in the test with Trypanosoma cruzi [2], the Activity is given as 100%. On to `COc1c(OC)c(O)c2c(=O)c(OC)c(-c3ccc(O)cc3)oc2c1OC` [CALYCOPTERIN], for which the Activity in the test on Trypanosoma cruzi [3] is reported as 0%.
